Converted amounts (≈) assume the structure as drawn. The source made the active and inactive calls. The calls are words filed in the database; no cut-off is given here.
Assays:
[1] = test system: Escherichia coli; test: Antibacterial activity against Escherichia coli BW25113 assessed as reduction in bacterial growth by CLSI based broth microdilution method; format: functional
[2] = test system: Candida albicans; test: Antifungal activity against Candida albicans SS5314 assessed as reduction in fungal growth by CLSI based broth microdilution method; format: functional
[3] = test system: Lacticaseibacillus casei; test: Antibacterial activity against Lactobacillus casei HM-334 assessed as reduction in bacterial growth by CLSI based assay; format: organism-based
[4] = test system: Candida albicans; test: Antibiofilm activity against Candida albicans NR29448 assessed as reduction in biofilm formation at 0.5XMIC incubated for 24 hrs by crystal violet staining based assay relative to control; format: functional
[5] = test system: Candida albicans; test: Antibiofilm activity against 24 hrs preformed biofilm of Candida albicans NR29448 assessed as disruption of mature biofilm at 64 ug/ml incubated for 24 hrs by crystal violet staining based spectrophotometry relative to control; format: functional; details: dose 64 µg/ml
[6] = test system: Candida albicans; test: Fungistatic activity against Candida albicans SS5314 at 5 to 10x MIC measured for 36 hrs by time kill assay; format: functional, organism-based
[7] = Selectivity index, ratio of CC50 for African green monkey Vero cells to MIC for antifungal activity against fluconazole-resistant Candida auris 381; format: toxicity; details: read-out: Selectivity Index
[8] = Selectivity index, ratio of CC50 for African green monkey Vero cells to MIC for antifungal activity against Candida glabrata ATCC 66032; format: toxicity; details: read-out: Selectivity Index
[9] = Selectivity index, ratio of CC50 for African green monkey Vero cells to MIC for antifungal activity against Candida glabrata ATCC MYA-2950; format: toxicity; details: read-out: Selectivity Index
[10] = Selectivity index, ratio of CC50 for African green monkey Vero cells to MIC for antifungal activity against Candida krusei CAB 396420; format: toxicity; details: read-out: Selectivity Index
[11] = Selectivity index, ratio of CC50 for African green monkey Vero cells to MIC for antifungal activity against Cryptococcus neoformans NR41300; format: toxicity; details: read-out: Selectivity Index
[12] = Selectivity index, ratio of CC50 for African green monkey Vero cells to MIC for antifungal activity against Aspergillus fumigatus NR 35303; format: toxicity; details: read-out: Selectivity Index
[13] = Selectivity index, ratio of maximum non-toxic concentration for human Caco-2 cells to MIC for antifungal activity against fluconazole-resistant Candida albicans NR29448; format: toxicity; details: read-out: Selectivity Index
[14] = Selectivity index, ratio of maximum non-toxic concentration for human Caco-2 cells to MIC for antifungal activity against Candida glabrata ATCC MYA-2950; format: toxicity; details: read-out: Selectivity Index
[15] = Selectivity index, ratio of maximum non-toxic concentration for human Caco-2 cells to MIC for antifungal activity against Candida parapsilosis ATCC 22019; format: toxicity; details: read-out: Selectivity Index
[16] = Selectivity index, ratio of maximum non-toxic concentration for human Caco-2 cells to MIC for antifungal activity against Cryptococcus gattii NR43209; format: toxicity; details: read-out: Selectivity Index
[17] = Selectivity index, ratio of maximum non-toxic concentration for human Caco-2 cells to MIC for antifungal activity against Aspergillus fumigatus NR 35304; format: toxicity; details: read-out: Selectivity Index

Structure (SMILES): Cc1nc(-c2ccc(C(C)(C)C)cc2)sc1-c1nnc(N[C@@H]2CCCC[C@@H]2N)o1 (relative stereo)
- MIC [1]: > 64 µg/mL
- MIC [2]: 1 µg/mL (≈ 2.43 µM)
- MIC [3]: > 128 µg/mL
- inhibition (INH) [4]: 40%
- Activity [5]: 16%
- Activity [6]: Active
- selectivity ratio [7]: ≤ 64
- selectivity ratio [8]: ≤ 64
- selectivity ratio [9]: ≤ 64
- selectivity ratio [10]: ≤ 64
- selectivity ratio [11]: ≤ 64
- selectivity ratio [12]: ≤ 64
- selectivity ratio [13]: ≤ 64
- selectivity ratio [14]: ≤ 64
- selectivity ratio [15]: ≤ 64
- selectivity ratio [16]: ≤ 64
- selectivity ratio [17]: ≤ 64

Source: ChEMBL document CHEMBL4680171, “Oxadiazolylthiazoles as novel and selective antifungal agents” (Eur J Med Chem, 2020)
